{"source": "patent US10358439B2", "about": "“DNA binding agents with a minor groove binding tail” (Board of Regents, The University of Texas System, priority 2015, dated 2019)", "key": {"U87": {"system": "U87", "test": "in vitro antitumor activity, U87", "assay_type": "cell-based", "conditions": "U87 (U87-MG brain tumor) cells"}, "Colo357-FG": {"system": "Colo357-FG", "test": "in vitro antitumor activity, Colo357-FG", "assay_type": "cell-based", "conditions": "Colo357-FG cells"}, "D54": {"system": "D54", "test": "in vitro antitumor activity, D54", "assay_type": "cell-based", "conditions": "D54 cells"}, "H441": {"system": "H441", "test": "in vitro antitumor activity, H441", "assay_type": "cell-based", "conditions": "H441 cells"}, "[1]": {"test": "in vitro IC50, cells not stated", "assay_type": "cell-based", "conditions": "cell lines not stated"}, "[2]": {"test": "5-mice pilot single-dose pharmacokinetic study, plasma and brain", "assay_type": "in vivo", "conditions": "mouse, iv, 5 mg/kg, one hour following a single ~5 mg/kg intravenous dose", "procedure": "WP1244 has a relatively high molecular weight (MW) (981.3) having a polyamide moiety attached to the amino sugar. A previous 5-mice pilot study performed with WP1244 confirmed the presence of WP1244 in murine brain tissue, and mean normalized concentrations in the plasma and brain were 283+/−128 ng/mL (range 159-487 ng/mL) and 122+/−67.6 ng/g (range 43-203 ng/g), respectively, one hour following a single ˜5 mg/kg intravenous dose. This pilot single-dose pharmacokinetic study was followed by a complete single-dose pharmacokinetic/biodistribution study which was designed to better elucidate the plasma time-course and tissue biodistribution, particularly in brain tissue, of WP1244. This study involve the use of 55 animals and a dose of 10 mg/kg. The experiment was conducted over a 24 h interval and the methods and results are outlined below."}, "[3]": {"test": "Mouse Plasma PK and Brain Distribution Study following Single IV Dose", "assay_type": "in vivo, male CD1 mice", "parameters": "Mean peak plasma concentration / area-under-the-curve: unit not given here", "conditions": "mice, 10 mg/kg IV; for Kp / Vd: iv, 10 mg/kg", "procedure": "(§1) Mouse Plasma PK and Brain Distribution Study following Single IV Dose—WP1244 was administered intravenously by rapid IV push to 55 male CD1 mice (Charles River Lab, Wilmington, Mass.) at a dose of 10 mg/kg. Each mouse (mean weight 22.0 g, range 20.7-26.6 g) was given a volume of 0.1 mL of a 2.2 mg/mL WP1244 solution formulated in DMSO:water (50:50, v/v). Five animals were assigned to one of 11 groups segregated by time, spanning the length of the 24-hour study period. One cohort of animals was sacrificed at each of the following time points and mouse plasma and tissues of interest, were harvested for analysis. The time points were as follows: 5, 15, 30, 45 minutes, 1, 2, 4, 6, 8, 12, and 24 hours following administration by intravenous bolus. Samples (plasma and tissues) were frozen and stored at −80° C. until subsequent analysis by LC/MS/MS.\nSample preparation and drug isolation (extraction) from plasma utilized the same fundamental approach used in pharmacokinetic and biodistribution studies of other anthracyclines previously conducted by the inventors. Briefly, WP1244 was extracted from a volume (0.1 mL) of mouse plasma using a solid-phase extraction method. Liquid-liquid extraction by a chloroform: 2-propanol (80:20, v/v) mixture was utilized to isolate the analyte from mouse brain tissue. An 8-point plasma extracted calibration curve was created to span a dynamic concentration range of WP1244 of 1-1000 ng/mL (1, 2.5, 10, 25, 50, 100, 500, and 1000 ng/mL) for the quantitative measurement of WP1244 extracted from mouse plasma, while a brain tissue derived calibration curve was utilized for determination of brain tissue concentrations of drug over a range of 10-1000 ng/g tissue. Samples exceeding the dynamic range of the calibration curve were re-analyzed following dilution in extraction buffers.\nQuantitative sample analysis was performed by chromatographic separation and identification/quantification using mass spectrometry (LC/MS/MS); the specific instrumentation used was an Agilent HP1100 Series liquid chromatograph in tandem with a Micromass Quattro Micro (Micro2) mass spectrometer. A Phenomenex® Luna C5, 4.6×50 mm, 3.5 μm) analytical column was used for chromatographic separation and peak resolution. As mentioned before, sample analysis utilized the same fundamental validated methods developed previously for the quantitative analysis of other anthracyclines studied by the inventors."}, "[4]": {"test": "acute clinically observable toxicity after IV bolus", "assay_type": "in vivo", "conditions": "mice, 10 mg/kg intravenous bolus, up to 24 hours following dosing", "procedure": "as §1"}}, "note": "Like-named read-outs stand apart in the source and are kept apart here.", "data": [{"smiles": "COc1cccc2c1C(=O)c1c(O)c3c(c(O)c1C2=O)C[C@](O)(C(C)=O)C[C@H]3OC1CC(NCc2ccc(NC(=O)c3cc(NC(=O)c4cc(NC(=O)c5cccn5C)cn4C)cn3C)cc2)C(O)C(C)O1", "note": "(stereo in doubt) [WP1243]", "values": [{"measurement": "IC50", "setting": "U87; Homo sapiens, U-87 MG", "result": 0.0083, "unit": "µM"}, {"measurement": "IC50", "setting": "Colo357-FG; COLO 357/FG", "result": 0.0762, "unit": "µM"}]}, {"smiles": "COc1cccc2c1C(=O)c1c(O)c3c(c(O)c1C2=O)C[C@](O)(C(C)=O)C[C@H]3OC1CC(NCc2ccc(NC(=O)c3cc(NC(=O)c4cc(NC(=O)c5cc(NC=O)cn5C)cn4C)cn3C)cc2)C(O)C(C)O1", "note": "(stereo in doubt) [WP1249]", "values": [{"measurement": "IC50", "setting": "U87; Homo sapiens, U-87 MG", "result": 0.0077, "unit": "µM"}, {"measurement": "IC50", "setting": "Colo357-FG; COLO 357/FG", "result": 0.0512, "unit": "µM"}]}, {"smiles": "COc1cccc2c1C(=O)c1c(O)c3c(c(O)c1C2=O)C[C@](O)(C(C)=O)C[C@H]3OC1CC(NCc2ccc(NC(=O)c3cc(NC(=O)c4cc(NC(=O)c5cc([N+](=O)[O-])cn5C)cn4C)cn3C)cc2)C(O)C(C)O1", "note": "(stereo in doubt) [WP1276]", "values": [{"measurement": "IC50", "setting": "U87; Homo sapiens, U-87 MG", "result": 0.0278, "unit": "µM"}, {"measurement": "IC50", "setting": "Colo357-FG; COLO 357/FG", "result": 0.443, "unit": "µM"}]}, {"smiles": "COc1cccc2c1C(=O)c1c(O)c3c(c(O)c1C2=O)C[C@@](O)(C(C)=O)C[C@H]3OC1CC(NC(=O)c2cc(NC(=O)c3cc(NC(=O)c4cccn4C)cn3C)cn2C)C(O)C(C)O1", "note": "(stereo in doubt) [WP1277]", "values": [{"measurement": "IC50", "setting": "U87; Homo sapiens, U-87 MG", "result": 0.105, "unit": "µM"}, {"measurement": "IC50", "setting": "Colo357-FG; COLO 357/FG", "result": 4.24, "unit": "µM"}]}, {"smiles": "COc1cccc2c1C(=O)c1c(O)c3c(c(O)c1C2=O)C[C@@](O)(C(C)=O)C[C@@H]3O[C@H]1C[C@H](N)[C@H](O)[C@H](C)O1", "note": "[DNR, reference compound]", "values": [{"measurement": "IC50", "setting": "U87", "result": 0.143, "unit": "µM"}, {"measurement": "IC50", "setting": "Colo357-FG", "result": 0.0464, "unit": "µM"}, {"measurement": "IC50", "setting": "D54", "result": 0.231, "unit": "µM"}, {"measurement": "IC50", "setting": "H441", "result": 0.0159, "unit": "µM"}]}, {"smiles": "COc1cccc2c1C(=O)c1c(O)c3c(c(O)c1C2=O)C[C@](O)(C(C)=O)C[C@H]3OC1CC(NCc2ccc(NC(=O)c3cc(NC(=O)c4cc(NC(=O)c5ccccn5)cn4C)cn3C)cc2)C(O)C(C)O1", "note": "(stereo partly shown) [WP1244]", "values": [{"measurement": "IC50", "setting": "U87; Homo sapiens, U-87 MG", "result": 0.0002, "unit": "µM"}, {"measurement": "IC50", "setting": "Colo357-FG; COLO 357/FG", "result": 0.0031, "unit": "µM"}, {"measurement": "IC50", "setting": "D54; Homo sapiens", "result": 0.00108, "unit": "µM"}, {"measurement": "IC50", "setting": "H441; Homo sapiens, NCI-H441", "result": 0.00091, "unit": "µM"}, {"measurement": "in vitro IC50 values", "setting": "[1]", "result": "subnanomolar range"}, {"measurement": "concentration at 1 h", "setting": "[2]; brain, read-out: mean normalized concentration in brain", "result": 122, "unit": "ng/g"}, {"measurement": "concentration at 1 h", "setting": "[2]; brain, read-out: range of normalized concentration in brain", "result": "43 to 203", "unit": "ng/g"}, {"measurement": "concentration at 1 h", "setting": "[2]; plasma, read-out: mean normalized concentration in plasma", "result": 283, "unit": "ng/mL"}, {"measurement": "concentration at 1 h", "setting": "[2]; plasma, read-out: range of normalized concentration in plasma", "result": "159 to 487", "unit": "ng/mL"}, {"measurement": "Kp", "setting": "[3]; male, CD1, mouse, brain, 0 to 8 hour interval, read-out: fold higher concentration in brain tissue than plasma", "result": "3 to 4"}, {"measurement": "Kp", "setting": "[3]; male, CD1, mouse, brain, over the measured interval (except 5 min timepoint), read-out: brain tissue to plasma concentration ratio", "result": "> 1"}, {"measurement": "concentration at 24 h", "setting": "[3]; male, CD1, mouse, brain, at 24 hours, read-out: nadir brain tissue concentration", "result": "> 100", "unit": "ng/g"}, {"measurement": "Vd", "setting": "[3]; male, CD1, mouse, plasma, 2-compartment model, read-out: volume of distribution Vc", "result": 0.0097, "unit": "L/kg"}, {"measurement": "Vd", "setting": "[3]; male, CD1, mouse, plasma, 2-compartment model, read-out: volume of distribution Vp", "result": 0.326, "unit": "L/kg"}, {"measurement": "Vd", "setting": "[3]; male, CD1, mouse, plasma, 2-compartment model, read-out: volume of distribution Vss", "result": 0.336, "unit": "L/kg"}, {"measurement": "clearance", "setting": "[3]; male, CD1, mouse, plasma, 2-compartment model, read-out: Drug clearance (converted)", "result": 0.683, "unit": "mL/min/kg"}, {"measurement": "concentration at 24 h", "setting": "[3]; male, CD1, mouse, plasma, 24 hours after IV bolus injection, read-out: mean nadir plasma concentration", "result": 21.5, "unit": "ng/mL"}, {"measurement": "mean peak concentration in brain tissue", "setting": "[3]; at 15 minutes post dose", "result": 915, "unit": "ng/g tissue"}, {"measurement": "Mean peak plasma concentration", "setting": "[3]; five minutes after drug administration", "result": 3.7}, {"measurement": "area-under-the-curve", "setting": "[3]; plasma", "result": 250}, {"measurement": "time of peak concentration in brain tissue", "setting": "[3]; post dose", "result": 15, "unit": "min"}, {"measurement": "acute clinically observable toxicity", "setting": "[4]", "result": "no acute clinically observable toxicity"}]}]}
